{"source": "patent US20010053349A1", "about": "“Artificial nail sanitizing solution” (priority 2000, published 2001)", "origin": "cited, not measured here", "tested_on": "nail fungus", "conditions": "oral compounds; average; treatment of documented nail fungus", "data": [{"smiles": "CN(C/C=C/C#CC(C)(C)C)Cc1cccc2ccccc12", "note": "[terbinafine]", "values": [{"measurement": "Clinical and mycological cure rates", "value": 70, "unit": "%"}]}]}
